Data taken from ChEMBL document CHEMBL5360524 (Bioorg Med Chem, 2022).

Experiments:
Serratia marcescens [1] = assay: Antibacterial activity against Serratia marcescens assessed as inhibition of bacterial growth measured after 168 hrs relative to control; assay type: functional
Serratia marcescens [2] = assay: Antibacterial activity against Serratia marcescens assessed as inhibition of bacterial growth measured after 96 hrs relative to control; assay type: functional

COc1cc(C=O)ccc1O [VANILLIN]
inhibition (INH) (Serratia marcescens [1]): 0.4% | inhibition (INH) (Serratia marcescens [2]): 0.3%
